Measurements from the supplement of paper PMC13380429.

Legend:
Caco-2 [1] = assay: cell viability relative to DMSO; higher = less toxic; details: 72 h
Calu-3 [2] = assay: as above; details: 72 h
Vero E6 [3] = assay: as above; details: 72 h
HepG2 [4] = assay: as above; details: 72 h
U2OS [5] = assay: as above; details: 72 h
Caco-2 [6] = assay: relative viability EC50 (midpoint between 100% and the lowest measured viability); higher = less toxic; details: 72 h
Calu-3 [7] = assay: as above; details: 72 h
Vero E6 [8] = assay: as above; details: 72 h
HepG2 [9] = assay: as above; details: 72 h
U2OS [10] = assay: as above; details: 72 h
Caco-2 [11] = assay: drug sensitivity score (DSS) for viability; higher = more toxic; extreme values may be limits of the assay; details: 72 h
Calu-3 [12] = assay: as above; details: 72 h
Vero E6 [13] = assay: as above; details: 72 h
HepG2 [14] = assay: as above; details: 72 h
U2OS [15] = assay: as above; details: 72 h
[16] = test system: A549-ACE2 infected with SARS-CoV-2; assay: morphology score (similarity to uninfected cells); higher = more like uninfected cells; details: 24 h

Row | Compound | cell viability (Caco-2 [1]; 1 nM) [%] | cell viability (Caco-2 [1]; 10 nM) [%] | cell viability (Caco-2 [1]; 100 nM) [%] | cell viability (Caco-2 [1]; 1000 nM) [%] | cell viability (Caco-2 [1]; 10000 nM) [%] | cell viability (Calu-3 [2]; 1 nM) [%] | cell viability (Calu-3 [2]; 10 nM) [%] | cell viability (Calu-3 [2]; 100 nM) [%] | cell viability (Calu-3 [2]; 1000 nM) [%] | cell viability (Calu-3 [2]; 10000 nM) [%] | cell viability (Vero E6 [3]; 1 nM) [%] | cell viability (Vero E6 [3]; 10 nM) [%] | cell viability (Vero E6 [3]; 100 nM) [%] | cell viability (Vero E6 [3]; 1000 nM) [%] | cell viability (Vero E6 [3]; 10000 nM) [%] | cell viability (HepG2 [4]; 1 nM) [%] | cell viability (HepG2 [4]; 10 nM) [%] | cell viability (HepG2 [4]; 100 nM) [%] | cell viability (HepG2 [4]; 1000 nM) [%] | cell viability (HepG2 [4]; 10000 nM) [%] | cell viability (U2OS [5]; 1 nM) [%] | cell viability (U2OS [5]; 10 nM) [%] | cell viability (U2OS [5]; 100 nM) [%] | cell viability (U2OS [5]; 1000 nM) [%] | cell viability (U2OS [5]; 10000 nM) [%] | relative viability EC50 (Caco-2 [6]) [µM] | relative viability EC50 (Calu-3 [7]) [µM] | relative viability EC50 (Vero E6 [8]) [µM] | relative viability EC50 (HepG2 [9]) [µM] | relative viability EC50 (U2OS [10]) [µM] | drug sensitivity score (Caco-2 [11]) | drug sensitivity score (Calu-3 [12]) | drug sensitivity score (Vero E6 [13]) | drug sensitivity score (HepG2 [14]) | drug sensitivity score (U2OS [15]) | morphology score ([16]; 0.3 µM) | morphology score ([16]; 3 µM) | morphology score ([16]; 10 µM) | morphology score ([16]; 30 µM)
1 | COc1cc(CN2CCN(c3ccc(F)cc3)CC2)cc(OC)c1OC [V-51] | 94.8 | 94.4 | 93.6 | 83.5 | 97.8 | 81.8 | 95.7 | 106 | 105 | 105 | 95.9 | 96.5 | 100 | 98.3 | 106 | 100 | 98.1 | 93.2 | 100 | 98.8 | 100 | 103 | 94.8 | 98.6 | 102 | > 10 | > 10 | > 10 | > 10 | > 10 | 0 | 0 | 0 | 0 | 0 | – | – | – | –
2 | CC(C)C[C@H](NC(=O)[C@@H](Cc1c[nH]c2ccccc12)NC(=O)[C@H](Cc1ccc(O)cc1)NC(=O)[C@H](CO)NC(=O)[C@H](Cc1c[nH]c2ccccc12)NC(=O)[C@H](Cc1c[nH]cn1)NC(=O)[C@@H]1CCC(=O)N1)C(=O)N[C@@H](CCCNC(=N)N)C(=O)N1CCC[C@H]1C(=O)NCC(N)=O [triptorelin] | 95.7 | 110 | 92.8 | 102 | 110 | 90.2 | 80.1 | 90 | 99.2 | 106 | 94.5 | 98.5 | 98 | 74.8 | 107 | 102 | 86.3 | 93 | 110 | 120 | 91.2 | 102 | 96.8 | 99.2 | 108 | > 10 | > 10 | > 10 | > 10 | > 10 | 0 | 0 | 0 | 0 | 0 | – | – | – | –
3 | O=S(=O)(c1cccc2cnccc12)N1CCCNCC1 [fasudil] | – | – | – | – | – | – | – | – | – | – | – | – | – | – | – | – | – | – | – | – | – | – | – | – | – | – | – | – | – | – | 0 | 0 | 0 | 0.7 | 0 | 0.21 | 0.17 | 0.3 | 0.09
4 | CN1[C@@H]2CC[C@H]1C[C@@H](OC(=O)c1c[nH]c3ccccc13)C2 [tropisetron] | 102 | 108 | 101 | 103 | 97.5 | 100 | 93.8 | 99.9 | 88.6 | 97.6 | 98.2 | 97.3 | 98.2 | 99.9 | 96.2 | 100 | 101 | 93.1 | 96.7 | 101 | 104 | 103 | 96.8 | 100 | 98.3 | > 10 | > 10 | > 10 | > 10 | > 10 | 0 | 0 | 0 | 0 | 0 | – | – | – | –
5 | Oc1ccc2ccccc2c1SSc1c(O)ccc2ccccc12 [IPA-3] | 98.9 | 94.9 | 91 | 95.7 | 92.9 | 96.3 | 109 | 99.8 | 107 | 111 | 99.7 | 101 | 102 | 102 | 95.8 | 104 | 109 | 89.2 | 106 | 103 | 93.2 | 96.6 | 97.6 | 98.3 | 92.9 | > 10 | > 10 | > 10 | > 10 | > 10 | 0 | 0 | 0 | 0 | 0 | – | – | – | –
6 | CC(=O)Nc1cccc(O)c1 [metacetamol] | 104 | 101 | 89.1 | 93.8 | 98.8 | 98.1 | 101 | 99.9 | 99.8 | 96.9 | 102 | 94.1 | 96 | 97.9 | 102 | 103 | 91.5 | 93.7 | 92.1 | 83.8 | 103 | 101 | 99.7 | 95.5 | 101 | > 10 | > 10 | > 10 | > 10 | > 10 | 0 | 0 | 0 | 0.6 | 0 | – | – | – | –
7 | COCCN(C(=O)c1cc(OC)c(OC)c(OC)c1)c1nc(-c2ccccc2)cs1 [eact] | 103 | 84.3 | 96.2 | 88.9 | 90.9 | 107 | 96.2 | 94.1 | 92.8 | 85.1 | 94.4 | 104 | 90.4 | 96.6 | 97.5 | 107 | 95.6 | 104 | 104 | 92.5 | 102 | 97 | 100 | 96.1 | 106 | > 10 | > 10 | > 10 | > 10 | > 10 | 0.1 | 0.4 | 0 | 0 | 0 | – | – | – | –
8 | CCOc1cc(OCC)c(C(=O)CCC(=O)O)cc1OCC [trepibutone] | 98.6 | 98.4 | 102 | 101 | 96.7 | 108 | 105 | 107 | 102 | 99.8 | 94.5 | 105 | 99.8 | 97.3 | 92.7 | 100 | 96.9 | 104 | 98.1 | 99.9 | 101 | 94.3 | 94.5 | 100 | 96.6 | > 10 | > 10 | > 10 | > 10 | > 10 | 0 | 0 | 0 | 0 | 0 | – | – | – | –
9 | CN([C@@H](Cc1ccc(OS(=O)(=O)c2cccc3cnccc23)cc1)C(=O)N1CCN(c2ccccc2)CC1)S(=O)(=O)c1cccc2cnccc12 [KN-62] | 93.4 | 119 | 112 | 89.6 | 101 | 105 | 95.8 | 98 | 93.9 | 91.1 | 104 | 96.6 | 98.9 | 96.3 | 94.8 | 123 | 110 | 105 | 101 | 95.7 | 101 | 100 | 99.9 | 95.4 | 92.3 | > 10 | > 10 | > 10 | > 10 | > 10 | 0 | 0 | 0 | 0 | 0 | – | – | – | –
10 | O=c1c(-c2ccccc2)c1-c1ccccc1 [diphencyprone] | 110 | 103 | 114 | 106 | 97.2 | 105 | 97.6 | 104 | 111 | 122 | 101 | 104 | 99.6 | 99.1 | 93.5 | 95.2 | 91.4 | 95.7 | 89.8 | 86 | 98.9 | 99.5 | 103 | 98 | 84.2 | > 10 | > 10 | > 10 | > 10 | > 10 | 0 | 0 | 0 | 0.2 | 0.5 | – | – | – | –
11 | Cc1cc(C(C)(C)CC(C)(C)C)ccc1OCCOCC[N+](C)(C)Cc1ccccc1 [methylbenzethonium-chloride] | 95.2 | 102 | 99.3 | 85 | 42.5 | 103 | 103 | 91.4 | 89.8 | 80.5 | 95.9 | 98.5 | 92.2 | 98.3 | 106 | 92 | 105 | 98.1 | 108 | 81.2 | 101 | 94.7 | 102 | 98.9 | 82.2 | 1.51 | > 10 | > 10 | > 10 | > 10 | 5.4 | 1.3 | 0 | 0.3 | 0.6 | – | – | – | –
12 | N=C(N)N/N=C/c1c(Cl)cccc1Cl [guanaben-acetate] | 94.3 | 95.8 | 87.3 | 95.4 | 90.7 | 91.7 | 94.2 | 91 | 99.7 | 92.1 | 95.3 | 102 | 100 | 97.5 | 97.7 | 98.1 | 102 | 102 | 93.9 | 101 | 96.9 | 96.2 | 94.6 | 97.7 | 91.5 | > 10 | > 10 | > 10 | > 10 | > 10 | 0 | 0 | 0 | 0 | 0 | – | – | – | –
13 | CCCCNC(=O)NS(=O)(=O)c1ccc(C)cc1 [tolbutamide] | 101 | 96.7 | 96.2 | 96.3 | 96.3 | 95.1 | 90.2 | 95.7 | 107 | 94.3 | 104 | 103 | 105 | 102 | 97.4 | 87.5 | 98 | 103 | 94.3 | 99.9 | 101 | 98.5 | 99.2 | 96.7 | 98.6 | > 10 | > 10 | > 10 | > 10 | > 10 | 0 | 0 | 0 | 0 | 0 | – | – | – | –
14 | CC[C@@H](Nc1c(Nc2cccc(C(=O)N(C)C)c2O)c(=O)c1=O)c1ccc(C)o1 [navarixin] | 95 | 99.3 | 106 | 99.3 | 91.6 | 89.2 | 98.3 | 95.1 | 102 | 105 | 94.9 | 95.3 | 96.6 | 90.2 | 107 | 97.9 | 87.4 | 93.8 | 94.6 | 99 | 93.4 | 102 | 98.3 | 98.4 | 103 | > 10 | > 10 | > 10 | > 10 | > 10 | 0 | 0 | 0 | 0 | 0 | – | – | – | –
